From PubChem BioAssay AID1996 come the findings set out here.

Values after ≈ are worked out from the molar mass of the structure shown.

The conditions of the series: buffer; pH 7.4; 200.0 µM.
For `COc1ccc(C2c3ccsc3CCN2C(=O)NC(C)(C)C)cc1` (stereo not drawn), the kinetic solubility (usually solubility judged after dilution from a stock solution rather than from solid) turned out to be 1.5 µg/mL (≈ 4.35 µM).
In the case of `O=C(CSc1cccc(C(F)(F)F)c1)Nc1ccc(N2CCOCC2)cc1` it was 7.7 µg/mL (≈ 19.4 µM); in that of `Cc1ccccc1-c1noc(CNC(=O)c2ccco2)n1`, greater than 42.5 µg/mL.
For the compound `CC(C)CN(C(=O)CSc1nc2ccccc2[nH]1)C1CCS(=O)(=O)C1` (stereo not drawn), the solubility (kinetic) is greater than 57.2 µg/mL.
In the case of `CNC(=O)C(=O)Nc1cc2c3c(c1)CCC(=O)N3CCC2` it was 19 µg/mL (≈ 66.1 µM); in that of `O=C(O)c1ccc(NCCC2=CCCCC2)c([N+](=O)[O-])c1`, 41.9 µg/mL (≈ 144 µM); in that of `CC(=O)C1=C(O)C(=O)N(Cc2ccccc2)C1c1ccc(F)cc1` (stereo not drawn), greater than 48.8 µg/mL.
In the case of `Cc1cc(C)c(S(=O)(=O)c2ccccc2)c(=O)[nH]1` it was greater than 39.5 µg/mL.
As to `O=C(c1c(Cl)cccc1Cl)N1CCN(c2cccc3[nH]ccc23)CC1`, the kinetic solubility came out at 4.8 µg/mL (≈ 12.8 µM).
`O=C(Oc1ccc2ccc(=O)oc2c1)c1ccc([N+](=O)[O-])cc1` showed a kinetic solubility of 0.9 µg/mL (≈ 2.89 µM).
The compound `O=C(NC(=S)Nc1ccc(O)cc1)c1ccccc1Cl` had a kinetic solubility of 20.5 µg/mL (≈ 66.8 µM).
In the case of `COC(=O)c1c(C)[nH]c(C)c1C(C)=O` it was greater than 29.3 µg/mL; in that of `O=C(Nc1cccnc1)C12CC3CC(CC(C3)C1)C2`, greater than 38.5 µg/mL; in that of `Cc1ccc(C2C(C(=O)c3ccco3)=C(O)C(=O)N2c2ncccn2)cc1` (stereo not drawn), greater than 54.2 µg/mL.
Next, `CCn1cc(C(=O)N2CCCCC2)c2ccccc21`: greater than 38.5 µg/mL.
In the case of `CCOc1ccc(OCCCCn2cnc3ccccc3c2=O)cc1` it was 0.7 µg/mL (≈ 2.07 µM); in that of `O=C(Cc1ccc(Cl)cc1Cl)NCc1cccnc1`, greater than 44.3 µg/mL; in that of `COc1cc(C(=O)O)nc(OC)n1`, greater than 27.6 µg/mL.
Take `Cc1nc2ccccc2c(=O)n1-c1ccc(Cl)cc1[N+](=O)[O-]`: the kinetic solubility was found to be 7.2 µg/mL (≈ 22.8 µM).
In the case of `CN1CCN(S(=O)(=O)c2ccccc2)C(c2ccccc2)C1` (stereo not drawn) it was 44.2 µg/mL (≈ 140 µM); in that of `COc1ccccc1C1CC(=O)NC(C)=C1C(=O)OC(C)C` (stereo not drawn), 28.4 µg/mL (≈ 93.6 µM).
In the case of `NS(=O)(=O)c1ccc(NC(=O)COC(=O)c2ccc(S(=O)(=O)N3CCOCC3)cc2)cc1` it was 13 µg/mL (≈ 26.9 µM); in that of `C=CCC1(Cl)C(=O)C(Cl)=C(N2CCN(C)CC2)C1(OC)OC` (stereo not drawn), greater than 52.4 µg/mL; in that of `O=C(COC(=O)c1cc(=O)[nH]c(=O)[nH]1)Nc1ccccc1F`, greater than 46.1 µg/mL.
Regarding `C=CCc1cccc(CNc2nc3ccccc3n2C)c1O`, the solubility (kinetic) is 0.3 µg/mL (≈ 1.02 µM).
Take `CCOc1c(Cl)cc(CNCc2ccncc2)cc1OC.Cl`: the kinetic solubility was found to be 46.1 µg/mL.
Consider `CC(C)c1ccc(NC(=O)CCCN2C(=O)NC(C)(C)C2=O)cc1`, for which the solubility (kinetic) was 37.8 µg/mL (≈ 114 µM).
In the case of `O=C(COC(=O)/C=C/c1cccs1)Nc1ccc(Cl)cc1F` it was 3.7 µg/mL (≈ 10.9 µM); in that of `Cc1ccc(C(O)(CCN2CCCCC2)c2ccccc2)cc1.Cl` (stereo not drawn), greater than 51.9 µg/mL; in that of `O=C1CC(N(O)c2ccccc2)C(=O)N1c1ccc(Cl)c(Cl)c1` (stereo not drawn), 9.8 µg/mL (≈ 27.9 µM).
Next, `O=C(/C=C/c1ccccc1)NCc1ccco1`: greater than 34.1 µg/mL.
In the case of `COc1ccc(-c2nc(S(=O)(=O)c3ccccc3)c(NCCCN3CCOCC3)o2)cc1` it was 67.8 µg/mL (≈ 148 µM); in that of `O=C1c2ccccc2C(=O)N1S(=O)(=O)c1ccccc1`, greater than 43.1 µg/mL; in that of `CC1(C)C(=O)Nc2ccccc2N1C(=O)COC(=O)c1cccs1`, 9.6 µg/mL (≈ 27.9 µM).
`Cc1ccc(CSCC(=O)NCc2cccs2)cc1` yielded a solubility (kinetic) of 41.9 µg/mL (≈ 144 µM).
In the case of `COCCN1C2=C(COC(C)(C)C2)C(=S)NC1c1ccccc1` (stereo not drawn) it was greater than 49.9 µg/mL; in that of `COc1cc(NC(=O)Nc2cc(C)on2)cc(OC)c1OC`, 37.8 µg/mL (≈ 123 µM).
In the case of `CCOc1c(C)cnc2c1c(=O)n(Cc1ccccc1F)c(=O)n2C` it was 15.8 µg/mL (≈ 46 µM); in that of `CCC(=O)Nc1ccc2c(c1)Cc1cc(NC(=O)CC)ccc1-2`, 0.5 µg/mL (≈ 1.62 µM); in that of `COc1ccc(NC(=O)CNc2ccc(C#N)cc2)cc1`, greater than 42.2 µg/mL.
As for `O=C(CCl)Nc1ccc(S(=O)(=O)Nc2nccs2)cc1`, the kinetic solubility was 34 µg/mL (≈ 102 µM).
`CCCC(=O)OCC(=O)Nc1ccccc1C#N` displayed a solubility (kinetic) greater than 36.9 µg/mL.
In the case of `Cc1ccc(S(=O)(=O)N2CCN(Cc3ccccc3)CC2)cc1` it was 5 µg/mL (≈ 15.1 µM); in that of `O=C(O)c1cccc(Nc2c([N+](=O)[O-])c(=O)oc3ccccc23)c1`, greater than 48.9 µg/mL.
In the case of `COc1ccc2c(c1)CC/C(=C\Nc1ccc3c(c1)OCO3)C2=O` it was 11.2 µg/mL (≈ 34.6 µM).
Take `COc1ccc(CN(C(=O)c2cccs2)c2ccccc2)cc1`: the kinetic solubility worked out at 8.8 µg/mL (≈ 27.2 µM).
Consider `O=C(OCc1cncs1)c1cccs1`, for which the kinetic solubility was greater than 33.8 µg/mL.
Next, `O=C(COc1ccccc1[N+](=O)[O-])NCCC1=CCCCC1`: 31.8 µg/mL (≈ 104 µM).
Next, `COc1cc(CNC2CCCCCCC2)ccc1OCC(N)=O`: greater than 48.1 µg/mL.
`O=C(NCCNC(=O)c1cc(Cl)ccc1Cl)c1ccco1` showed a kinetic solubility of 46.6 µg/mL (≈ 142 µM).
In the case of `O=C(COC(=O)c1cc(Cl)ccc1O)Nc1ccccc1C(=O)NC1CC1` it was 2 µg/mL (≈ 5.14 µM).
The compound `O=C(N/C(=C/c1cccnc1)C(=O)N1CCOCC1)c1ccccc1Cl` displayed a kinetic solubility greater than 55.8 µg/mL.
In the case of `CC(Sc1ccccc1)C(=O)N(CCC#N)Cc1cccnc1` (stereo not drawn) it was greater than 48.8 µg/mL; in that of `O=C(NCc1ccccc1)N1CCOc2ccccc21`, 31.3 µg/mL (≈ 117 µM); in that of `c1ccc(SCc2cn3cccnc3n2)nc1`, greater than 36.3 µg/mL.
Compound `Cc1ccc(/C=N/NC(=O)CN2CCN(Cc3ccccc3Cl)CC2)o1` displayed a solubility (kinetic) greater than 56.2 µg/mL.
In the case of `CCOC(=O)c1c(O)c(Cl)c(C)[nH]c1=O` it was greater than 34.7 µg/mL.
In turn, `CC(OC(=O)c1ccco1)C(=O)Nc1nc(-c2ccccc2)cs1` (stereo not drawn) gave a kinetic solubility of 4.5 µg/mL (≈ 13.1 µM).
As to `O=C(COC(=O)c1ccc(Br)o1)Nc1ccc(F)cc1[N+](=O)[O-]`, the solubility (kinetic) was 8.2 µg/mL (≈ 21.2 µM).
In the case of `Cc1c(NC(=O)Nc2ccc(F)cc2F)c(=O)n(-c2ccccc2)n1C` it was greater than 53.8 µg/mL; in that of `O=C(O)CCCc1ccc(N(CCCl)CCCl)cc1`, greater than 45.6 µg/mL; in that of `O=[N+]([O-])c1ccc(N2CCc3ccccc3C2)nc1`, 7.6 µg/mL (≈ 29.8 µM).
Next, `CC(C)c1ccc(NC(=O)CC2Oc3ccccc3NC2=O)cc1` (stereo not drawn): 1.3 µg/mL (≈ 4.01 µM); `CCOc1ncccc1C(=O)Nc1ccc(C)cn1`: 31.8 µg/mL (≈ 124 µM).
In the case of `CCOc1ccc(CCNC(=O)C2(c3ccccc3)CC2)cc1OCC` it was greater than 53 µg/mL; in that of `Cc1ccc(S(=O)(=O)N2CCOCC2)cc1NC(=O)c1ccc(F)cc1F`, 8.2 µg/mL (≈ 20.7 µM).
In turn, `COc1ccc(NC(=O)C2CCOC(C)(C)C2)cc1` (stereo not drawn) displayed a solubility (kinetic) greater than 39.5 µg/mL.
Next, `Cc1cccc(OCC(=O)Nc2ccncc2)c1C`: 37.8 µg/mL (≈ 147 µM); `CSCCn1c(C(C)(C)C)cc(C(=O)O)c1C`: 31.3 µg/mL (≈ 123 µM).
In the case of `COc1cc(/C=C/c2nc3ccccc3c(=O)[nH]2)cc(Cl)c1O` it was 43.2 µg/mL (≈ 131 µM); in that of `COc1ccc(/C=C(\C)C(=O)c2c(C)cc(C)[nH]c2=O)cc1`, 42.9 µg/mL (≈ 144 µM).
Next, `CC1CC(C)CN(C(=O)CSc2nnc(N)s2)C1` (stereo not drawn): greater than 43 µg/mL; `COC(=O)C1CCN(c2cnccn2)CC1`: greater than 33.2 µg/mL.
For the compound `Cc1ccc2c(c1)N(CC(=O)NC1CCCC1)C(=O)CO2`, the solubility (kinetic) is greater than 43.3 µg/mL.
Take `Cc1cc(C)nc(NC(C)(C)C(=O)O)n1`: the kinetic solubility was greater than 31.4 µg/mL.
In the case of `Cc1c(C(=O)C(=O)NCC2CCCO2)c2ccccc2n1C` (stereo not drawn) it was greater than 45.1 µg/mL.
In the case of `COc1ccc(/C=C2\SC(=N)N(c3ccc(F)cc3)C2=O)cc1` it was less than 0.4 µg/mL; in that of `CC(=O)N(c1cccc(Br)c1)c1nc(C)cc(C)c1C#N`, greater than 51.6 µg/mL.
`O=C(Nc1cc(C(F)(F)F)ccc1N1CCOCC1)c1ccncc1` gave a solubility (kinetic) greater than 52.7 µg/mL.
Compound `COc1ccc(NC(=O)CS(=O)c2ccc(F)cc2)cc1` (stereo not drawn) had a solubility (kinetic) greater than 46.1 µg/mL.
Next, `O=C(NCc1cccnc1)Nc1ccc2c(c1)OCO2`: greater than 40.7 µg/mL.
`CC(C(=O)Nc1ccccc1)N1CCN(c2ccccn2)CC1` (stereo not drawn) showed a kinetic solubility of 11.2 µg/mL (≈ 36.1 µM).
`CC(C)CC(=O)Nc1cccc(-c2nc3ccccc3[nH]2)c1` returned a kinetic solubility of 32.2 µg/mL (≈ 110 µM).
In the case of `O=C(Cc1ccccc1Cl)NC1(O)C(=O)c2ccccc2C1=O` it was greater than 49.5 µg/mL.
`CCc1cnccc1CCC(=O)Nc1ccccc1C` returned a kinetic solubility of 35.4 µg/mL (≈ 132 µM).
In the case of `O=C(NC(=S)NCCC1=CCCCC1)c1cccnc1` it was 22.2 µg/mL (≈ 76.7 µM).
In the case of `CC1CC(C)CN(C(=O)c2ccc3ccccc3c2)C1` (stereo not drawn) it was 33.3 µg/mL (≈ 125 µM).
Next, `N/C(=N\[N+](=O)[O-])N1CCN(C(=O)OC2CCCC2)CC1`: greater than 42.8 µg/mL.
The compound `Cc1cc(OC(=O)c2ccc(C(C)(C)C)cc2)c([N+](=O)[O-])c(=O)[nH]1` registered a kinetic solubility of 46.4 µg/mL (≈ 140 µM).
In the case of `CC(C)[C@H](NC(=O)c1ccccc1Cl)C(=O)OCC(=O)NCc1ccc2c(c1)OCO2` it was greater than 67 µg/mL; in that of `O=C(COC(=O)c1cc(=O)[nH]c2ccccc12)Nc1ccc(F)cc1`, 15.4 µg/mL (≈ 45.3 µM); in that of `Cc1cccc(NC(=O)COC(=O)c2cc3ccccc3oc2=O)c1`, less than 0.7 µg/mL.
Consider `O=C(NS(=O)(=O)c1ccccc1[N+](=O)[O-])c1ccccc1`, for which the kinetic solubility is greater than 45.9 µg/mL.
`NC(=O)c1cccnc1Oc1ccc(Cl)cc1Cl` returned a solubility (kinetic) of 37.1 µg/mL (≈ 131 µM).
In the case of `Cc1ccc(C(=O)Nc2ccc3ncccc3c2)cc1` it was 6.9 µg/mL (≈ 26.3 µM); in that of `CC1(C)CC(NC(=O)c2cc(S(=O)(=O)N3CCOCC3)ccc2Cl)CC(C)(C)N1.Cl`, greater than 72.1 µg/mL; in that of `O=C(O)CCN1CCN(S(=O)(=O)c2ccc3ccccc3c2)CC1`, 44.5 µg/mL (≈ 128 µM).
In the case of `COc1ccc(C2(C)NC(=O)N(CC(=O)NC3(C#N)CCCCC3)C2=O)cc1` (stereo not drawn) it was greater than 57.7 µg/mL.
As for `O=C(CN1CCCC1)NN=C(c1ccccc1)c1ccccc1`, the kinetic solubility was greater than 46.1 µg/mL.
`C=CCc1c(C)nc(N2CCSCC2)[nH]c1=O` yielded a kinetic solubility of 32 µg/mL (≈ 127 µM).
The compound `Cc1ccc(CC(=O)NC2CCCc3ccccc32)cc1C` (stereo not drawn) had a kinetic solubility of 3.2 µg/mL (≈ 10.9 µM).
Next, `CC1CCCCC1NC(=O)c1cc(=O)[nH]c2ccccc12` (stereo not drawn): 3.6 µg/mL (≈ 12.7 µM); `CCC(CC)NC(=O)COc1ccc(OC)cc1C=O`: 30.7 µg/mL (≈ 110 µM).
